Data: patent publication US20210276967A1 (OSPEDALE SAN RAFFAELE S.R.L., priority 2018, published 2021)

test system: HBV; test: HBV inhibition in HepAD38 cells, extracellular HBV DNA by direct qPCR; type: cell-based, hepatitis B virus; details: Hepatitis B virus; 0.5 μM, HepAD38, 96 hours; read-out: HBV inhibition % (conc μM)
From the text: HepAD38 cell line (Ladner et al., Antimicrob Agents Chemother, 1997, 41, 1715-20) was used for HBV inhibition assays. HepAD38 is a subclone, derived from hepatoblastoma cell line HepG2 (ATCC® Number: HB-8065™), that expresses HBV genome under the transcriptional control of a tetracycline-responsive promoter in a TET-OFF system: addition of tetracycline (TET) or doxycycline suppresses HBV replication, while its removal switches on the process allowing HBV viral particles release in the cell supernatant. HepAD38 cell line is maintained in DMEM/F12, supplemented with 10% of fetal bovine serum, 1% of glutamine, 1% of penicillin/streptomycin, 0.4 mg/ml G418 and 0.3 ug/ml tetracycline. For the HBV inhibition assay, doxycycline-free medium is used in order to allow virion production.
HBV inhibition activity in vitro was performed in 96 multiwell plates. During the initial (primary) screening compounds were first tested in triplicates at concentrations of 0.1 μM, 0.5 μM and 1 μM. For selected compounds, an 8-point dose-response curve was obtained using 1:2 serial dilutions (starting from 2.5 μM, 1.25 μM or 0.4 μM, depending on the degree of inhibition observed during the primary screening). From the dose-response curves, half maximal effective concentration (EC50) could be calculated (see also below).
In more detail, compounds—typically dissolved in DMSO stock solutions—were diluted to 2× the final desired concentration in 100 μl of the above medium (without doxycycline) and plated in three replicates in the 96-well plates.
Simultaneously, HepAD38 cells—extensively pre-washed in tetracycline-free medium in order to induce HBV production—were suspended at 2*10^4 cells in 100 μl of tetracycline-free medium and added to each well of the plate, to yield a final assay volume of 200 μl.
DMSO, used for stock solutions and compounds dilutions, is always present in the assays at a final concentration of 0.5%.
Plates were then incubated 96 hours at 37° C. and then subjected to cell viability assays and extracellular HBV quantification, in order to evaluate both the cytotoxic potential and the anti-viral activity of compounds.
Cytotoxicity was assessed by a commercial fluorescence assay that measures the metabolic activity of cells, directly related to cell viability (Cell Titer Blue, Promega). For each compound, cytotoxicity was evaluated at the same concentration employed to evaluate its anti-HBV activity. Anti-HBV activity was evaluated by quantification of extracellular HBV DNA with direct qPCR. In particular, supernatant was collected and centrifuged for cell debris clarification, viral DNA was extracted from virions by addition of lysis buffer (1 mM 1,4-dithiothreitol, 0.2% sodium dodecyl sulphate) and incubated at 95° C. for 10 min. Samples were then diluted 1:40 and real time PCR amplification was performed with SYBR green assay (Power SYBR™ Green PCR Master Mix-Thermo Fisher Scientific) and specific HBV primer (HBV-DF:5′-[…]-3′ (SEQ ID No. 1), HBV-DR:5′-[…]-3′ (SEQ ID No. 2)).
All HBV inhibition or antiviral activity data are typically reported in percent (%) relative to a non-treated reference sample. Excel and Graphpad Prism programs are typically used for data elaboration and EC50 calculation.

SMILES	inhibition at 0.5 µM [%]
Nc1ccc(C(=O)Nc2cc(F)c(F)c(F)c2)cc1S(=O)(=O)N[C@@H]1CC[C@@H](O)C1 (relative stereo) [Example E57, trans-4-amino-3-(N-(3-hydroxycyclopentyl)sulfamoyl)-N-(3,4,5-trifluorophenyl)benzamide]	> 50
Nc1ccc(C(=O)Nc2cc(F)c(F)c(F)c2)cc1S(=O)(=O)N[C@@H]1CC[C@@H](O)C1 (stereo in doubt) [Example E26, 4-amino-3-(N-((1R,3R)-3-hydroxycyclopentyl)sulfamoyl)-N-(3,4,5-trifluorophenyl)benzamide]	> 50
Nc1ccc(C(=O)Nc2ccc(F)c(F)c2)cc1S(N)(=O)=O [Example E4, 4-amino-N-(3,4-difluorophenyl)-3-sulfamoylbenzamide]	> 50
Nc1ccc(C(=O)Nc2ccc(F)c(C(F)(F)F)c2)cc1S(N)(=O)=O [Example E7, 4-amino-N-(4-fluoro-3-(trifluoromethyl)phenyl)-3-sulfamoylbenzamide]	> 50
N#Cc1cc(NC(=O)c2ccc(N)c(S(N)(=O)=O)c2)ccc1F [Example E8, 4-amino-N-(3-cyano-4-fluorophenyl)-3-sulfamoylbenzamide]	> 50
Nc1ccc(C(=O)Nc2ccc(F)c(C(F)F)c2)cc1S(N)(=O)=O [Example E9, 4-amino-N-(3-(difluoromethyl)-4-fluorophenyl)-3-sulfamoylbenzamide]	> 50
Nc1ccc(C(=O)Nc2ccc(F)c(Cl)c2)cc1S(N)(=O)=O [Example E10, 4-amino-N-(3-chloro-4-fluorophenyl)-3-sulfamoylbenzamide]	> 50
Nc1ccc(C(=O)Nc2ccc(Cl)nc2)cc1S(N)(=O)=O [Example E11, 4-amino-N-(6-chloropyridin-3-yl)-3-sulfamoylbenzamide]	< 50
Cc1cc(NC(=O)c2ccc(N)c(S(N)(=O)=O)c2)ccc1F [Example E12, 4-amino-N-(4-fluoro-3-methylphenyl)-3-sulfamoylbenzamide]	> 50
Cc1c(F)cc(NC(=O)c2ccc(N)c(S(N)(=O)=O)c2)cc1F [Example E13, 4-amino-N-(3,5-difluoro-4-methylphenyl)-3-sulfamoylbenzamide]	< 50
Nc1ccc(C(=O)Nc2ccc(F)c(F)c2F)cc1S(N)(=O)=O [Example E14, 4-amino-3-sulfamoyl-N-(2,3,4-trifluorophenyl)benzamide]	< 50
Nc1ccc(C(=O)Nc2cc(F)c(F)cc2F)cc1S(N)(=O)=O [Example E15, 4-amino-3-sulfamoyl-N-(2,4,5-trifluorophenyl)benzamide]	< 50
Nc1ccc(C(=O)Nc2ccc(F)cc2Cl)cc1S(N)(=O)=O [Example E16, 4-amino-N-(2-chloro-4-fluorophenyl)-3-sulfamoylbenzamide]	< 50
C[C@@H](NS(=O)(=O)c1cc(C(=O)Nc2cc(F)c(F)c(F)c2)ccc1N)C(F)(F)F [Example E18, (R)-4-amino-N-(3,4,5-trifluorophenyl)-3-(N-(1,1,1-trifluoropropan-2-yl)sulfamoyl)benzamide]	> 50
C[C@H](NS(=O)(=O)c1cc(C(=O)Nc2cc(F)c(F)c(F)c2)ccc1N)C(F)(F)F [Example E19, (S)-4-amino-N-(3,4,5-trifluorophenyl)-3-(N-(1,1,1-trifluoropropan-2-yl)sulfamoyl)benzamide]	> 50
Nc1ccc(C(=O)Nc2cc(F)c(F)c(F)c2)cc1S(=O)(=O)NC1CC1 [Example E20, 4-amino-3-(N-cyclopropylsulfamoyl)-N-(3,4,5-trifluorophenyl)benzamide]	> 50
Nc1ccc(C(=O)Nc2cc(F)c(F)c(F)c2)cc1S(=O)(=O)N[C@H]1CC[C@@H](O)CC1 [Example E22, cis-4-amino-3-(N-(4-hydroxycyclohexyl)sulfamoyl)-N-(3,4,5-trifluorophenyl)benzamide]	> 50
Cc1cc(N)c(S(=O)(=O)N[C@H]2CC[C@H](O)CC2)cc1C(=O)Nc1cc(F)c(F)c(F)c1 [Example E23, trans-4-amino-5-(N-(4-hydroxycyclohexyl)sulfamoyl)-2-methyl-N-(3,4,5-trifluorophenyl)benzamide]	> 50
Nc1ccc(C(=O)Nc2cc(F)c(F)c(F)c2)cc1S(=O)(=O)N[C@H]1C[C@@H](O)C1 [Example E24]	> 50
Nc1ccc(C(=O)Nc2cc(F)c(F)c(F)c2)cc1S(=O)(=O)N[C@H]1C[C@H](O)C1 [Example E25]	> 50
CC(C)(C)OC(=O)N1CCC(NS(=O)(=O)c2cc(C(=O)Nc3cc(F)c(F)c(F)c3)ccc2N)CC1 [Example E27, tert-butyl 4-((2-amino-5-((3,4,5-trifluorophenyl)carbamoyl)phenyl)sulfonamido)piperidine-1-carboxylate]	< 50
Nc1ccc(C(=O)Nc2cc(F)c(F)c(F)c2)cc1S(=O)(=O)NC1CCNCC1 [Example E28, 4-amino-3-(N-(piperidin-4-yl)sulfamoyl)-N-(3,4,5-trifluorophenyl)benzamide]	< 50
Nc1ccc(C(=O)Nc2cc(F)c(F)c(F)c2)cc1S(=O)(=O)N1CCC(O)CC1 [Example E29, 4-amino-3-((4-hydroxypiperidin-1-yl)sulfonyl)-N-(3,4,5-trifluorophenyl)benzamide]	> 50
Nc1ccc(C(=O)Nc2cc(F)c(F)c(F)c2)cc1S(=O)(=O)Nc1ccncc1 [Example E31, 4-amino-3-(N-(pyridin-4-yl)sulfamoyl)-N-(3,4,5-trifluorophenyl)benzamide]	< 50
Nc1ccc(C(=O)Nc2cc(F)c(F)c(F)c2)cc1S(=O)(=O)NC1COC1 [Example E33, 4-amino-3-(N-(oxetan-3-yl)sulfamoyl)-N-(3,4,5-trifluorophenyl)benzamide]	> 50
CC(C)(C)OC(=O)N1CC[C@H](NS(=O)(=O)c2cc(C(=O)Nc3cc(F)c(F)c(F)c3)ccc2N)C1 [Example E34, tert-butyl (S)-3-((2-amino-5-((3,4,5-trifluorophenyl)carbamoyl)phenyl)sulfonamido)pyrrolidine-1-carboxylate]	> 50
Nc1ccc(C(=O)Nc2cc(F)c(F)c(F)c2)cc1S(=O)(=O)N[C@H]1CCNC1 [Example E35, (S)-4-amino-3-(N-(pyrrolidin-3-yl)sulfamoyl)-N-(3,4,5-trifluorophenyl)benzamide]	< 50
Cc1cc(C(=O)Nc2cc(F)c(F)c(F)c2)cc(S(N)(=O)=O)c1N [Example E36, 4-amino-3-methyl-5-sulfamoyl-N-(3,4,5-trifluorophenyl)benzamide]	> 50
Nc1ncc(C(=O)Nc2cc(F)c(F)c(F)c2)cc1S(N)(=O)=O [Example E37, 6-amino-5-sulfamoyl-N-(3,4,5-trifluorophenyl)nicotinamide]	< 50

same assay, conditions: Hepatitis B virus; 1 μM, HepAD38, 96 hours; read-out: HBV inhibition % (conc μM)

SMILES	inhibition at 1 µM [%]
CNc1ccc(C(=O)Nc2cc(F)c(F)c(F)c2)cc1S(N)(=O)=O [Example E1, 4-(methylamino)-3-sulfamoyl-N-(3,4,5-trifluorophenyl)benzamide]	< 50
CNS(=O)(=O)c1cc(C(=O)Nc2cc(F)c(F)c(F)c2)ccc1N [Example E2, 4-amino-3-(N-methylsulfamoyl)-N-(3,4,5-trifluorophenyl)benzamide]	> 50
Nc1cc(Br)c(C(=O)Nc2cc(F)c(F)c(F)c2)cc1S(N)(=O)=O [Example E6, 4-amino-2-bromo-5-sulfamoyl-N-(3,4,5-trifluorophenyl)benzamide]	> 50

same assay, conditions: Hepatitis B virus; HepAD38, 8-point dose-response; read-out: HBV inh EC50

SMILES	EC50 [nM]
Nc1cc(Cl)c(C(=O)Nc2cc(F)c(F)c(F)c2)cc1S(N)(=O)=O [Example E5, 4-amino-2-chloro-5-sulfamoyl-N-(3,4,5-trifluorophenyl)benzamide]	< 1000
Nc1ccc(C(=O)Nc2cc(F)c(F)c(F)c2)cc1S(=O)(=O)N[C@H]1CC[C@H](O)CC1 [Example E21, trans-4-amino-3-(N-(4-hydroxycyclohexyl)sulfamoyl)-N-(3,4,5-trifluorophenyl)benzamide]	< 1000
